Results published in ChEMBL document CHEMBL5247637, “Rational design, synthesis and biological evaluation of novel 2-(substituted amino)-[1,2,4]triazolo[1,5-a]pyrimidines as novel tubulin polymerization inhibitors” (Eur J Med Chem, 2022).
pIC50: −log10 of the molar value.

Assays:
[1] = target: Tubulin; experiment: Inhibition of tubulin polymerization (unknown origin) incubated for 0.5 hrs in presence of GTP by spectrophotometer analysis; format: protein-complex assay, Homo sapiens
[2] = target: Tubulin (Homo sapiens) (UniProt P68371+Q9H4B7+P0DPH7+P68366+Q13509+Q71U36+P04350+Q3ZCM7+P07437+P68363+Q9BQE3+Q6PEY2+Q13885+Q9BVA1+Q9BUF5); experiment: Inhibition of tubulin polymerization (unknown origin) at 10 uM incubated for 0.5 hrs in presence of GTP by spectrophotometer analysis relative to control; format: protein-complex assay
[3] = tested on: T47D; experiment: Antiproliferative activity against human T47D cells assessed as inhibition of cell growth measured after 48 hrs by MTT assay; format: functional, cell-based
[4] = tested on: A549; experiment: Antiproliferative activity against human A549 cells assessed as inhibition of cell growth measured after 48 hrs by MTT assay; format: functional, cell-based; settings: A549, 48 h

Q: How did the pIC50 [1] turn out when `COc1ccc(Nc2nc3nccc(-c4cc(OC)c(OC)c(OC)c4)n3n2)cc1O` was run?
A: Its pIC50 is 5.31.

Q: And the inhibition [2]?
A: The inhibition was 43%.

Q: Which results are given for `COc1ccc(/C=C\c2cc(OC)c(OC)c(OC)c2)cc1O` [COMBRETASTATIN A4]?
A: pIC50 [3]: 7.68; pIC50 [4]: 7.57

Q: `COc1ccc(C2C(C(C)=O)=C(C)N=C3N=C(c4cc(OC)c(OC)c(OC)c4)NN32)cc1[N+](=O)[O-]` (configuration not stated) was tested. Which pIC50 [1] did it give?
A: The pIC50 was 5.00.

Q: What about the inhibition [2] of the same molecule?
A: The inhibition was 56%.

Q: With `COc1ccc(Nc2nc3nccc(-c4cc(OC)c(OC)c(OC)c4)n3n2)cc1N` as the molecule, how does the inhibition [2] read?
A: The inhibition was 78%.
